Assay results from paper PMC8187380, “Lipophilic nanocrystal prodrug-release defines the extended pharmacokinetic profiles of a year-long cabotegravir” (Nature Communications, 2021).
Where two headings read alike, the source gives them in different places.

Columns and labels:
SHIV = system: SHIV; design: method as in PMID 24594934; conditions: NHP, cited from earlier work
[1] = design: method as in PMID 30387005; conditions: in water; cited from earlier work
[2] = system: human monocyte-derived macrophages (MDMs); assay: Cellular uptake, retention and release in macrophages; type: cell-based; conditions: for Percent taken up by MDMs: 8 h, 10 µM
Protocol: Human peripheral blood monocytes were obtained by leukapheresis from HIV-1,2 and hepatitis B seronegative donors and purified by centrifugal elutriation. Monocytes were cultured for the first seven days in macrophage colony stimulating factor enriched media (MCSF, 1000 U/ml) to facilitate cell vitality and differentiation into macrophages[15],[29]. […] Cells were maintained in clear flat-bottom 12-well plates at 37 °C in a 5% CO2 incubator at a density of 1.0 × 10^6 cells per well. Half-culture media was replaced with fresh media every other day. After differentiation, MDM were utilized for CAB prodrug or drug nanoparticle uptake, retention and release. […] At days 1, 5, 10, 15, 20, and 30, adherent MDM were washed twice with PBS, scraped into PBS, and counted using an Invitrogen Countess Automated Cell Counter (Carlsbad, CA). Cell suspension was then centrifuged at 900 × g for 8 min at 4 °C. […] To quantify release kinetics, drug concentrations were measured in samples collected from the culture media from the same retention experiment using preloaded MDMs, at the same time when cells were harvested to quantify intracellular drug retention.

HIV-1 = conditions: no reference given; cited from earlier work
[3] = Plasma/blood PK after single IM injection in male Balb/cJ mice (UNMC); type: in vivo
Protocol: In mice, inguinal, axillary, branchial, and cervical lymph nodes were collected and pooled, while in rats only cervical lymph nodes were collected. Following injection, blood samples were collected at 4 h, days 1, 2, 4, 7, 14, 28, 42, and 56 and then monthly for 12 months into EDTA tubes (blood sample time points were evenly distributed between the four groups). Fifty μl of blood was immediately transferred into 950 μl methanol (containing 0.1% FA and 2.5 mM AF), vortexed, and stored at −80 °C until drug analysis. The remaining portion of the blood samples were centrifuged at 2000 × g for 5 min for plasma collection, which was stored at −80 °C until drug analysis. […] Plasma samples were collected up to day 672 and CAB and M2CAB quantification were performed by LC-MS/MS.
For blood samples, 50 µl blood collected in 950 µl of methanol was vortexed, centrifuged at 16,000 × g for 10 min at 4 °C, and 50 µl supernatant was aspirated, mixed with 50 µl IS [20 ng/ml d3-dolutegravir (d3-DTG) and 40 ng/ml stearoylated darunavir (SDRV)] in 70% methanol (containing 0.1% FA and 2.5 mM AF). d3-DTG was used as the IS (final concentration = 10 ng/ml) for the quantification of CAB, and SDRV (final concentration = 20 ng/ml) was used as the IS for quantification of M2CAB. Ten µl of the sample was analyzed by LC-MS/MS for CAB and M2CAB. […]

CYP450 = system: CYP450; design: method as in PMID 26340566, PMID 26049948; conditions: cited from earlier work
[4] = Metabolic stability in blood; type: in vitro ADME, mouse, rat, rabbit, monkey, dog, human; conditions: for Stability in blood: 24 h
Protocol: […] The samples were then centrifuged at 16,000 × g for 10 min after which 10 µl of the supernatant was mixed with 80% methanol (containing 0.1% FA and 2.5 mM AF) containing an internal standard (IS) and analyzed by LC-MS/MS. For the time zero start time, a 100 µl of ice-cold blood was spiked with M2CAB and immediately 0.9 ml of methanol (containing 0.1% FA and 2.5 mM AF) was added. Heat-inactivated plasma was incubated at the same conditions and used as negative controls to differentiate chemical versus metabolic stability.

[5] = cited from earlier work
[6] = design: method as in PMID 26340566, PMID 26049948; conditions: cited from earlier work
[7] = macaques; cited from earlier work
[8] = Chemical (pH) stability of unformulated M2CAB; type: physicochemical; conditions: 37 °C, 24 h, 1 μM
Protocol: Next, we assessed the chemical stability of the solubilized form of M2CAB at a range of pHs [pH 1.0 (0.1 M HCl), pH 7.4 (PBS), pH 8.3 (heat-inactivated plasma) and pH 11.0 (0.1 M NaOH)]. […] At 24 h, percent M2CAB recovered was 87, 52, 5, and 2 at pH 1.0, pH 7.4, pH 8.3 and pH 11.0, respectively (Supplementary Fig. 3). Reductions in M2CAB prodrug concentrations paralleled native CAB formation, indicating the hydrolysis of the prodrug M2CAB into parent CAB.
Supplementary Figure 3. M2CAB pH stability. Chemical stability profile of M2CAB at pH 1.0 (0.1 M HCl), pH 7.4 (PBS), pH 8.3 (heat inactivated plasma) and pH 11.0 (0.1 M NaOH) at 1 μM drug concentration. (a) Percent M2CAB remaining vs. time profile for M2CAB; (b) Percent CAB formation vs. time profile from M2CAB. Data are expressed as mean (N = 2 replicates per time point). Each experiment was repeated independently two times with equivalent results.
(1 picture or pasted object on this page, not shown here)

[9] = Metabolic stability in rat tissue homogenates; type: in vitro ADME
Protocol: For metabolic stability in tissues, freshly collected rat liver, spleen, muscle, and lymph node tissues were homogenized in five-volumes of PBS (w/v). […] At different time points (0, 30 min, 2 h, and 6 h), 0.9 ml of methanol (containing 0.1% FA and 2.5 mM AF) was added to each sample and vortexed for 3 min. Samples were centrifuged at 16,000 × g for 10 min, 10 µl supernatant was mixed with 80% methanol (containing 0.1% FA and 2.5 mM AF) containing IS and analyzed by LC-MS/MS.

[10] = Stability in macrophage cell culture media and MDM-cell lysate; type: in vitro ADME, human; conditions: M2CAB solution
[11] = Metabolic stability in liver S9 fractions; type: in vitro ADME, mouse, rat, rabbit, monkey, dog, human; conditions: six species, 2 h incubation, 1 µM
Protocol: The metabolic stabilities of CAB and M2CAB were determined using mouse, rat, rabbit, dog, monkey, and human liver S9 fractions (XenoTech, LLC, Lenexa, KS, USA). Briefly, CAB and M2CAB were incubated at 1 µM in a 100 µl mixture containing S9 fractions at 1 mg/ml protein concentration, NADPH (1 mM), saccharolactone (5 mM), uridine 5′-diphospho-glucuronic acid (UDPGA) (1 mM), and 3′-phosphoadenosin-5′-phosphosulphate (PAPS) ([…]) in PBS (100 mM, pH 7.4) at 37 °C. For each time point (0, 30, and 120 min), reactions were quenched by adding 0.9 ml of methanol (containing 0.1% FA and 2.5 mM AF), followed by centrifugation at 15,000 × g for 10 min. Ten microliters of the supernatants were then analyzed by LC-MS/MS. Heat-inactivated S9 fractions were incubated at the same conditions and used as negative controls. Hydroxycoumarin (7-HC) metabolites including 7-HC-glucuronide and 7-HC-sulfate, and the testosterone metabolite 6β-hydroxytestosterone were used as positive controls for phase I and phase II metabolism.

C[C@H]1CO[C@@H]2Cn3cc(C(=O)NCc4ccc(F)cc4F)c(=O)c(O)c3C(=O)N12 [CAB, cabotegravir]
Protection against intrarectal SHIV challenge (SHIV; plasma CAB concentrations >3×PA-IC90): 100%
Protection against intrarectal SHIV challenge (SHIV; plasma CAB concentrations ≥1×PA-IC90): 97%
Aqueous solubility [1]: 15 µg/mL
Percent taken up by MDMs [2]: ≤ 0.1%
Intracellular CAB levels in MDMs ([2]; after 8 h drug loading at 10 µM): below or at the limit of detection within hours
Protein-adjusted 90% inhibitory concentration (PA-IC90) (HIV-1): 0.166 µg/mL
Fold CAB blood concentration lower than plasma concentration ([3]; all samples (mice and rats)): ~2 fold
Affinity for CYP450 (CYP450): low
Stability in blood ([4]; all species, 1 µM, 37 °C): stable
Percent of CAB recovered ([4]; blood, all six species, by 24 h): more than 90%
Oral bioavailability [5]: near-complete
Plasma half-life [5]: 30 to 40 h
Eliminated unchanged in feces ([5]; humans): up to 50%
Glucuronide metabolites in urine ([5]; humans): 27%
Terminal phase half-life ([5]; humans): 504 to 1200 h
Unidentified metabolites in feces ([5]; humans): 10%
tmax (oral absorption) ([5]; oral): 1.5 to 2 h
Membrane permeability [6]: high
Terminal phase half-life [7]: 72 to 288 h

CCCCCCCCCCCCCCCCCC(=O)Oc1c2n(cc(C(=O)NCc3ccc(F)cc3F)c1=O)C[C@H]1OC[C@H](C)N1C2=O [M2CAB]
Percent M2CAB recovered ([8]; pH 1.0 (0.1 M HCl)): 87%
Percent M2CAB recovered ([8]; pH 7.4 (PBS)): 52%
Percent M2CAB recovered ([8]; pH 8.3 (heat-inactivated plasma)): 5%
Percent M2CAB recovered ([8]; pH 11.0 (0.1 M NaOH)): 2%
Stability in heat-inactivated liver homogenate ([9]; control): unstable
Percent of M2CAB remaining/recovered ([9]; rat tissue homogenates, after 6 h incubation, 1 µM): 50–80%
Time to complete hydrolysis into CAB in cell lysates [10]: ≤ 7 days
Time to complete hydrolysis into CAB in media [10]: ≤ 3 days
Percent of M2CAB lost [11]: < 25%
Percent taken up by MDMs [2]: up to 30%
Percent released into the media (recovered as CAB) ([2]; MDMs, within days): < 95%
Percent of intracellular drug retained by MDMs ([2]; one month after 8 h loading at 10 µM): 4%
Blood concentration of the prodrug as percent of CAB ([3]; mice and rats, after NM2CAB): < 1%
Stability in blood ([4]; all species, 1 µM, 37 °C): unstable
Percent of M2CAB hydrolyzed ([4]; blood of dog, monkey, mouse, rat, rabbit, human, after 6 h, 1 µM, 37 °C): Greater than 80%
Time within which M2CAB was hydrolyzed into the parent CAB ([4]; blood, all species): ≤ 6 h
Stability in heat-inactivated plasma ([4]; control, 1 µM, 37 °C): unstable
